According to patent US10787444B2, “Compounds for the modulation of myc activity” (Syros Pharmaceuticals, Inc., priority 2015, dated 2020):
Structures can show the parent of a compound that is named as a salt.

Biological target: T1, c-Myc/Max/Ebox DNA (Homo sapiens, UniProt P01106)
T1 construct: his6 (cleaved yes)
Experiment: c-Myc/Max/Ebox DNA AlphaScreen Assay
Type: binding
Conditions: Table 2, compounds of FIG. 1; calculated IC50 class
Protocol: Compounds of the invention were assayed for c-Myc/Max/EBox activity as described in the following protocol. Human his6-c-Myc and his6-Max were used with biotinylated DNA containing a single Ebox sequence (biotin[…]) purchased from MWG Operon. Free c-Myc was generated from his6-c-Myc through thrombin cleavage of the his6 tag. For 384-well plate assays, 10 μL of a 2× solution of free c-Myc (20 nM final), Ni^2+ coated Acceptor Beads (25 μg/ml final), and biotinylated Ebox oligo (10 nM final) were added to 384-well plates with a Biotek EL406 liquid handler. 50 nL of compounds from stock plates were added by pin transfer using a Janus Workstation (PerkinElmer), allowing the compounds to interact with c-Myc prior to c-Myc binding with Max. In the current assay, DMSO was not allowed to exceed 2% v/v of the assay. 10 μl of 2× master mix containing streptavidin-coated donor beads (25 μg/ml final) and his6-Max (5 nM) were added. AlphaScreen measurements were performed on an Envision plate reader (PerkinElmer) utilizing the manufacturer's protocol.
Both master mixes were made in room temperature assay buffer (50 mM HEPES, 150 mM NaCl, 0.2% w/v BSA, 0.02% w/v Tween20, 40 μg/ml glycogen, 500 μM DTT, pH 8.0, wherein both DTT and glycogen were added fresh). Alpha beads were added to respective master solutions. All subsequent steps were performed in low light conditions. Solution 1:2× solution of components with final concentrations of c-Myc Ni-coated Acceptor Beads (25 μg/ml), and biotinylated Ebox oligo (10 nM). Solution 2:2× solution of streptavidin-coated donor beads (25 μg/ml final) and his6-Max 10 μL. […] 50 nL of compounds from stock plates were added by pin transfer using a Janus Workstation. Solution 2 (10 μl) was added with the liquid handler. Plates were sealed with foil to block light exposure and prevent evaporation. Plates were very briefly centrifuged followed by 2 hour incubation. […] Excitation was at 680 nm for donor bead release of singlet oxygen and emission was read with a bandpass filter from 520-620 nm.

T1 sequence (P01106 whole entry): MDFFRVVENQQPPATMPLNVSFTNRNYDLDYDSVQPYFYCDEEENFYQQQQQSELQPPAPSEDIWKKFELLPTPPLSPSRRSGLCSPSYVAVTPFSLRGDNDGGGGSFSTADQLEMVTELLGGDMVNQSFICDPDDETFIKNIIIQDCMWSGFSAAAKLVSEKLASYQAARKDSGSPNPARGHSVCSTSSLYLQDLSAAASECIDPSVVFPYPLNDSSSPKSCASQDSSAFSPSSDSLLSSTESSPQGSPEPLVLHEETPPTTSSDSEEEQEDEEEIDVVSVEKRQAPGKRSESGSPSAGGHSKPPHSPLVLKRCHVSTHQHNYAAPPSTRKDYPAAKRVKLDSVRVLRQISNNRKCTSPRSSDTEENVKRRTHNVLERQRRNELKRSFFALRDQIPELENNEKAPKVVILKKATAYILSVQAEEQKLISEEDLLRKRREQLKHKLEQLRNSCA

Row | Molecule | IC50
1 | COCCNCCC(=O)Nc1sc2c(c1-c1nc3ccc(-c4ccncc4)cc3s1)CC(C)NC2C (single isomer, unassigned) [Compound 518, N-(5,7-Dimethyl-3-(6-(pyridin-4-yl)benzo[d]thiazol-2-yl)-4,5,6,7-tetrahydrothieno[2,3-c]pyridin-2-yl)-3-((2-methoxyethyl)amino)propanamide] | 1 to 10 µM
2 | CC(C)N1CCc2c(sc(NC(=O)CCNCCc3ccccc3Cl)c2-c2nc3ccccc3s2)C1 [Compound 109, N-(3-(benzo[d]thiazol-2-yl)-6-isopropyl-4,5,6,7-tetrahydrothieno[2,3-c]pyridin-2-yl)-3-((2-chlorophenethyl)amino)propanamide] | > 10 µM
3 | CC(C)N1CCc2c(sc(NC(=O)CCNCCCOCCOCCOCCCN)c2-c2nc3ccccc3s2)C1 [Compound 120, 1-amino-N-(3-(benzo[d]thiazol-2-yl)-6-isopropyl-4,5,6,7-tetrahydrothieno[2,3-c]pyridin-2-yl)-4,7,10-trioxa-14-azaheptadecan-17-amide] | < 0.3 µM
4 | CCOC(=O)CNCCC(=O)Nc1sc2c(c1-c1nc3ccccc3s1)CCN(C(C)C)C2 [Compound 138, Ethyl (3-((3-(benzo[d]thiazol-2-yl)-6-isopropyl-4,5,6,7-tetrahydrothieno[2,3-c]pyridin-2-yl)amino)-3-oxopropyl)glycinate] | 0.3 to 1 µM
5 | CCC(C)NCCC(=O)Nc1sc2c(c1-c1nc3cc(Br)ccc3s1)CCNC2 (stereo not drawn) [Compound 139, N-(3-(5-bromobenzo[d]thiazol-2-yl)-4,5,6,7-tetrahydrothieno[2,3-c]pyridin-2-yl)-3-(sec-butylamino)propanamide] | < 0.3 µM
6 | O=C(O)CNCCC(=O)Nc1sc2c(c1-c1nc3ccccc3s1)CCNC2 [Compound 166, (3-((3-(benzo[d]thiazol-2-yl)-4,5,6,7-tetrahydrothieno[2,3-c]pyridin-2-yl)amino)-3-oxopropyl)glycine] | 0.3 to 1 µM
7 | O=C(CCNCc1cn[nH]c1)Nc1sc2c(c1-c1nc3ccccc3s1)CCNC2 [Compound 167, 3-(((1H-pyrazol-4-yl)methyl)amino)-N-(3-(benzo[d]thiazol-2-yl)-4,5,6,7-tetrahydrothieno[2,3-c]pyridin-2-yl)propanamide] | < 0.3 µM
8 | CC(C)N1CCc2c(sc(NC(=O)CCNCC(=O)O)c2-c2nc3ccccc3s2)C1 [Compound 168, (3-((3-(benzo[d]thiazol-2-yl)-6-isopropyl-4,5,6,7-tetrahydrothieno[2,3-c]pyridin-2-yl)amino)-3-oxopropyl)glycine] | 0.3 to 1 µM
9 | Cc1cccc2oc(-c3c(NC(=O)CCNC(C)C)sc4c3CCNC4)nc12 [Compound 311, 3-(Isopropylamino)-N-(3-(4-methylbenzo[d]oxazol-2-yl)-4,5,6,7-tetrahydrothieno[2,3-c]pyridin-2-yl)propanamide dihydrochloride] | 0.3 to 1 µM
10 | COCCNCCC(=O)Nc1sc2c(c1-c1nc3ccccc3s1)C[C@H](C)NC2 [Compound 538, (S)—N-(3-(Benzo[d]thiazol-2-yl)-5-methyl-4,5,6,7-tetrahydrothieno[2,3-c]pyridin-2-yl)-3-((2-methoxyethyl)amino)propanamide] | 0.3 to 1 µM
11 | N-(3-(Benzo[d]thiazol-2-yl)-6-isopropyl-4,5,6,7-tetrahydrothieno[2,3-c]pyridin-2-yl)-3-(isobutylamino)propanamide [Compound 552] | > 10 µM
12 | N-((5S,7R)-5,7-dimethyl-3-(5-(pyridin-4-yl)benzo[d]thiazol-2-yl)-4,5,6,7-tetrahydrothieno[2,3-c]pyridin-2-yl)-3-((2-methoxyethyl)amino)propanamide [Compound 532] | 1 to 10 µM

Same assay, conditions: Table 3, compounds of FIG. 2; calculated IC50 class

Row | Molecule | IC50
13 | CC(=O)Nc1sc2c(c1-c1nc3ccccc3s1)[C@H](C)CN(C(C)C)C2 [Compound 207, (S)—N-(3-(benzo[d]thiazol-2-yl)-6-isopropyl-4-methyl-4,5,6,7-tetrahydrothieno[2,3-c]pyridin-2-yl)acetamide] | 1 to 10 µM
14 | CC(=O)Nc1sc2c(c1-c1nc3ccccc3s1)[C@@H](C)CN(C(C)C)C2 [Compound 208, (R)—N-(3-(benzo[d]thiazol-2-yl)-6-isopropyl-4-methyl-4,5,6,7-tetrahydrothieno[2,3-c]pyridin-2-yl)acetamide] | 1 to 10 µM
15 | CC(=O)Nc1sc2c(c1-c1nc3ccccc3s1)CC(C)NC2 (stereo not drawn) [Compound 209, N-(3-(benzo[d]thiazol-2-yl)-5-methyl-4,5,6,7-tetrahydrothieno[2,3-c]pyridin-2-yl)acetamide] | 1 to 10 µM
16 | CC(=O)Nc1sc2c(c1-c1nc3ccccc3s1)CCNC2C (stereo not drawn) [Compound 210, N-(3-(benzo[d]thiazol-2-yl)-7-methyl-4,5,6,7-tetrahydrothieno[2,3-c]pyridin-2-yl)acetamide] | 1 to 10 µM
17 | CCN1[C@H](C)Cc2c(sc(NC(C)=O)c2-c2nc3ccccc3s2)[C@@H]1C [Compound 211, N-(3-(benzo[d]thiazol-2-yl)-6-ethyl-5,7-dimethyl-4,5,6,7-tetrahydrothieno[2,3-c]pyridin-2-yl)acetamide] | 1 to 10 µM
18 | CC(=O)Nc1sc2c(c1-c1nc3ccccc3s1)C(C)CCNC2 (stereo not drawn) [Compound 212, N-(3-(benzo[d]thiazol-2-yl)-4-methyl-5,6,7,8-tetrahydro-4H-thieno[2,3-c]azepin-2-yl)acetamide] | > 10 µM
19 | CC(=O)Nc1sc2c(c1-c1nc3ccccc3s1)C(C)CCN(C(C)C)C2 (stereo not drawn) [Compound 213, N-(3-(benzo[d]thiazol-2-yl)-7-isopropyl-4-methyl-5,6,7,8-tetrahydro-4H-thieno[2,3-c]azepin-2-yl)acetamide] | > 10 µM
20 | CC(=O)Nc1sc2c(c1-c1nc3ccccc3s1)CCNC2C(F)(F)F (stereo not drawn) [Compound 214, N-(3-(benzo[d]thiazol-2-yl)-7-(trifluoromethyl)-4,5,6,7-tetrahydrothieno[2,3-c]pyridin-2-yl)acetamide] | > 10 µM
21 | CC(=O)Nc1sc2c(c1-c1nc3ccccc3s1)CC(C(F)(F)F)NC2 (stereo not drawn) [Compound 215, N-(3-(benzo[d]thiazol-2-yl)-5-(trifluoromethyl)-4,5,6,7-tetrahydrothieno[2,3-c]pyridin-2-yl)acetamide] | > 10 µM
22 | CC(=O)Nc1sc2c(c1-c1nc3ccccc3s1)CCN(C(C)C)C2C (stereo not drawn) [Compound 216, N-(3-(benzo[d]thiazol-2-yl)-6-isopropyl-7-methyl-4,5,6,7-tetrahydrothieno[2,3-c]pyridin-2-yl)acetamide] | > 10 µM
23 | CC(=O)Nc1sc2c(c1-c1nc3ccccc3s1)CCC(NC(C)=O)C2 (stereo not drawn) [Compound 222, N,N′-(3-(benzo[d]thiazol-2-yl)-4,5,6,7-tetrahydrobenzo[b]thiophene-2,6-diyl)diacetamide] | > 10 µM
24 | CC(=O)Nc1sc2c(c1-c1nc3ccccc3s1)CCC(NC1CCN(C(=O)OC(C)(C)C)CC1)C2 (stereo not drawn) [Compound 228, tert-butyl 4-((2-acetamido-3-(benzo[d]thiazol-2-yl)-4,5,6,7-tetrahydrobenzo[b]thiophen-6-yl)amino)piperidine-1-carboxylate] | > 10 µM
